Data as given in patent publication EP0471345B1, “Determination of biogenous amines” (BOEHRINGER MANNHEIM GMBH, priority 1990, dated 1992).

Columns and labels:
Test in all cases: competitive ELISA: relative affinity and cross-reactivity of monoclonal antibodies against Histamin-ITCB
[1] = test system: monoklonaler Antikörper 1.54.95 gegen Histamin-ITCB; conditions: amount of Histamin-ITCB for 50 % signal drop (50 % IC) in ELISA; antibody 1.54.95
Text: (§1) Zur Ermittlung der Relativen Affinität werden Kompetitionskurven mit dem homologen Antigen ermittelt und ausgewertet.
(§2) Mikrotiterplatten werden mit 100 »l pro well einer Lösung aus 10 »g Thermo-SA-Streptavidin/ml (Herstellung nach EP-A 0269 092) in Puffer pH 9,6 eine Stunde bei Raumtemperatur beschichtet. Die Platten werden mit 0,9% Natriumchloridlösung gewaschen. […] Darauf werden 100 »l Probe in PBS eine Stunde bei Raumtemperatur inkubiert und erneut mit 0,9 % Natriumchloridlösung gewaschen. Es folgt eine weitere Inkubation (1 Stunde bei Raumtemperatur) mit 100 »l/well einer Lösung von 150 mU/ml eines Schaf-anti-Maus-IgG-Peroxidase-Konjugats (Boehringer Mannheim GmbH, Best.-Nr. 821489) in PBS/O,5 % RSA. Nach einem weiteren Waschschritt mit 0,9 % Natriumchloridlösung wird die Peroxidaseaktivität durch Zugabe von 100 »l/well einer ABTS®-Lösung (100 mg ABTS; 3,25 mmol/l Natriumperborat; 39,8 mmol/l Citronensäure; 60 mmol/l Natriumphosphat; pH 4,4-4,5) 30 min bei Raumtemperatur und anschließender Extinktionsmessung bei 405 nm bestimmt.
(§3) Die Kreuzreaktion wurde anschließend mit folgender Formel berechnet: [formula] C = Konzentration des jeweiligen Antigens, die zur Erreichung von 50 % des maximalen Signals erforderlich ist.

[2] = test system: monoklonaler Antikörper 1.17.44 (ECACC 90071901) gegen Histamin-ITCB; conditions: amount of Histamin-ITCB for 50 % signal drop (50 % IC) in ELISA; antibody 1.17.44
Text: as §1, §2, §3

[3] = test system: monoklonaler Antikörper 1.47.74 (ECACC 90071902) gegen Histamin-ITCB; conditions: amount of Histamin-ITCB for 50 % signal drop (50 % IC) in ELISA; antibody 1.47.74
Text: as §1, §2, §3

[4] = test system: monoklonaler Antikörper 1.36.59 gegen Histamin-ITCB; conditions: amount of Histamin-ITCB for 50 % signal drop (50 % IC) in ELISA; antibody 1.36.59
Text: as §1, §2, §3

[5] = test system: monoklonaler Antikörper 1.25.53 gegen Histamin-ITCB; conditions: amount of Histamin-ITCB for 50 % signal drop (50 % IC) in ELISA; antibody 1.25.53
Text: as §1, §2, §3

[6] = test system: monoklonaler Antikörper 1.97.235 gegen Histamin-ITCB; conditions: amount of Histamin-ITCB for 50 % signal drop (50 % IC) in ELISA; antibody 1.97.235
Text: as §1, §2, §3

[7] = test system: monoklonaler Antikörper 1.83.201 gegen Histamin-ITCB; conditions: amount of Histamin-ITCB for 50 % signal drop (50 % IC) in ELISA; antibody 1.83.201
Text: as §1, §2, §3

[8] = test system: monoklonaler Antikörper 1.68.168 gegen Histamin-ITCB; conditions: amount of Histamin-ITCB for 50 % signal drop (50 % IC) in ELISA; antibody 1.68.168
Text: as §1, §2, §3

Q: Which “Relative Affinität zu Histamin-ITCB” value [1] does the source give for `O=C(O)c1cccc(NC(=S)NCCc2c[nH]cn2)c1` [Histamin-ITCB, N-(3-Carboxyphenyl)-N'-[2-(4-imidazolyl)ethyl]thioharnstoff] here?
A: Its value is 1,5 ng/ml.

Q: What about the “Relative Affinität zu Histamin-ITCB” value [2] of the same compound?
A: The value was 0,5 ng/ml.

Q: And the “Relative Affinität zu Histamin-ITCB” value [3]?
A: Its value is 0,8 ng/ml.

Q: What about the “Relative Affinität zu Histamin-ITCB” value [4] of the same compound?
A: Its value is 1 ng/mL.

Q: And the “Relative Affinität zu Histamin-ITCB” value [5]?
A: Its value is 1 ng/mL.

Q: And the “Relative Affinität zu Histamin-ITCB” value [6]?
A: The value was 1,5 ng/ml.

Q: And the “Relative Affinität zu Histamin-ITCB” value [7]?
A: Its value is 0,75 ng/ml.

Q: What about the “Relative Affinität zu Histamin-ITCB” value [8] of the same compound?
A: The value was 1,4 ng/ml.
